According to ChEMBL document CHEMBL3044700, “Molecular modeling and protection against pentylenetetrazole-induced seizure of new 1,4-dihydropyridines containing 5(4)-imidazolyl substituent” (Med Chem Res, 2012):
Activity calls are given as the source filed them. The calls are words filed in the database; no cut-off is given here.

What was measured:
[1] = test system: Mus musculus; test: Anticonvulsant activity in Mus musculus NMRI (mouse) assessed as protection against pentylenetetrazole-induced seizures at 5 to 20 mg/kg, ip administered 30 min prior to pentylenetetrazole induction relative to vehicle-treated control; type: functional, organism-based
[2] = test system: Mus musculus; test: Anticonvulsant activity in Mus musculus NMRI (mouse) assessed as protection against pentylenetetrazole-induced seizures at 20 mg/kg, ip administered 30 min prior to pentylenetetrazole induction relative to vehicle-treated control; type: functional, organism-based; design: dose 20 mg/kg

SMILES	Activity [1]	Activity [2]
CCc1nc(C2C(C(=O)OCCc3ccccc3)=C(C)NC(C)=C2C(=O)OCCc2ccccc2)c(Cl)[nH]1	Active	
COC(=O)C1=C(C)NC(C)=C(C(=O)OC)C1c1ccccc1[N+](=O)[O-]		Active
CC1=C(C(=O)OCCc2ccccc2)C(c2nc[nH]c2Cl)C(C(=O)OCCc2ccccc2)=C(C)N1	Active	
CCc1nc(C2C(C(=O)OCc3ccccc3)=C(C)NC(C)=C2C(=O)OCc2ccccc2)c(Cl)[nH]1	Active	
CC1=C(C(=O)OCCCc2ccccc2)C(c2nc[nH]c2Cl)C(C(=O)OCCCc2ccccc2)=C(C)N1	Active	
CC1=C(C(=O)OCc2ccccc2)C(c2nc[nH]c2Cl)C(C(=O)OCc2ccccc2)=C(C)N1	Active	
CCOC(=O)C1=C(C)NC(C)=C(C(=O)OCCc2ccccc2)C1c1nc(CC)[nH]c1Cl (stereo not drawn)	Active	
CCc1nc(C2C(C(=O)OC)=C(C)NC(C)=C2C(=O)OCCc2ccccc2)c(Cl)[nH]1 (stereo not drawn)	Active	
